By GI50 is commonly meant the concentration that inhibits growth by half.

Where a name gives a salt, the structure may show the parent alone.

One assay has as its system HT-29 Cell line. Nature of the assay: Cell growth inhibition of cancer cell lines (SRB assay), HT-29. In kind it is cell-based. The protocol:
(§1) The tests on cell growth inhibitory activity were performed with respect to A549 (US, ATCC), SK-OV-3 (Korea Research Institute of Chemical Technology; KRICT), HT-29 (US, ATCC), MCF-7 cell (US, ATCC), using Sulforhodamin-B <SRB> Assay (1989, US National Cancer Institute (NCI)) which was developed to measure the in vitro anti-cancer activity of the drug. […] The samples of the compounds of the Examples according to the present invention were used for the tests, and before the tests, the samples were dissolved in dimethylsulfoxide and diluted with the culture medium (RPMI 1640) to be used. The final concentration of the sample was varied in the range of 0.3˜100 μM. After the culture medium was removed from the 96 well plates, the diluted sample solution was added by 100 μl, and cultured in 37° C., 5% CO2 culture medium for 72 hours. The time zero (Tz) plates were collected at the time point of adding the sample. Upon completing the culture, the medium was removed from each well along with Tz plate, then cold 10% trichloroacetic acid (TCA) was added by 100 μl per well. The wells were left at 4° C. for 1 hour, so that the cells were fixed into the bottom of the plates. After the cells were fixed, the plates were rinsed with water five to six times to remove the remaining trichloroacetic acid solution, and moisture was completely dried at room temperature. The cells were dyed for 30 minutes by adding the dye solution in which 0.4% sulforhodamine-B was dissolved in 1% acetic acid solution, by 100 μl per dried wells. The above was rinsed again with 1% acetic acid solution five to six times to ensure that sulforhodamine-B which had not attached to the cells was removed. The plates were again dried at room temperature. 100 μl of 10 mM tris-buffer was then added to dissolve the dye, and the optical density (OD) at 520 nm was measured with the microplate reader. GI50 of the sample regarding cancer cell was calculated as explained below. Time zero (Tz), control value (C) and test value (T) were obtained, in which Tz corresponds to OD value of time at which the sample is applied and culture is started, C corresponds to OD value of the well which is cultured without treatment with the sample, and T corresponds to OD value of the well which is treated with the sample and then cultured. The degree of cell growth inhibition of the sample was measured using: If […] [Mathematical Formula 1]
(§2) Further, the ability of Examples 2, 42, 49, 52, 72, 74, 101 to increase growth inhibition effect of temozolomide and SN-38 at 2 μM was determined.
On the technique in general: The SRB assay estimates cell density from bound dye.

Assay [1] concerns Rat Middle Cerebral Artery Occlusion (MCAO) Animal Model. The assay can be described thus: Neuroprotective effect in rat middle cerebral artery occlusion (MCAO) animal model. In kind it is in vivo. The note with it: for Infarct volume: 22 hours after reperfusion; for Percent of infraction decrease: vs control group. As to the method: Animal test was performed on male Sprague Dawley rats (KOATECH Co., Ltd., South Korea) weighing 280 to 340 g. Animals were given food and water ad libitum and adapted to the test environment for 1 week. The modified intraluminal filament technique as described by Zea Longa et al. (Stroke, 20:84-91, 1989) was used to induce MCAO. The rats were developed ischemic regions due to insufficient blood flow in striatum and temporal lobe which are the domain regions of the middle cerebral artery and depletion of oxygen and energy sources after the middle cerebral artery occlusion. In order to occlude the middle cerebral artery with the intraluminal suture method, 4-0 nylon suture was cut to 22 mm, and 2 mm of the terminal end was rounded by flame heating. In order to increase the effect of damage preventing and occlusion in the lumen, a probe was coated with silicon to 0.3 mm.
Rats were anaesthetized with isoflurane (3% for induction and 2% for surgical procedure) in a mixture of oxygen/nitrous oxide (30%/70%). The left common carotid artery (CCA) was exposed through a ventral midline incision in the neck. The external carotid artery (ECA), internal carotid artery (ICA), and CCA were carefully isolated and maintained in a Y-shape by use of silk suture. The upper external carotid artery was blocked by a thread, and a minute hole is bored 1 mm below the spot at which the external and internal carotid arteries bifurcate from the common carotid. The probe was inserted in the minute hole and fixed by a thread. The neck wound was closed and each animal was allowed to recover from anesthesia. 120 min after MCA occlusion, each animal was re-anesthetized, and the neck wound was re-opened to remove the thread. Along with the reperfusion, the compound of Example 74 was injected intravenously. 22 hours after the reperfusion, the animals were sacrificed by CO2 suffocation, decapitated, and 2 mm thick six coronal sections were obtained using rodent brain matrix. The coronal slices were incubated in phosphate-buffered saline (PBS) containing 2% 2,3,5-triphenyl tetrazolium chloride (TTC, Sigma) at 37° C. for 30 min, and then fixed in 4% phosphate-buffered formalin. After fixation these brain sections were scanned using a flat-bed scanner. The infarct area was determined by image J (NIH image version 1.59), and the total infarct volume was calculated by: Infarct volume (mm^3)=infarct […]×thickness of slice (2 mm) [Mathematical formula 3]
The statistical analysis of the decrease of infarct volume was performed by Mann Whitney test (*:p<0.05, **:p<0.01).

The test system of a further assay is SK-OV-3 Cell line. The assay can be described thus: Cell growth inhibition of cancer cell lines (SRB assay), SK-OV-3. In kind it is cell-based. As to the method:
as §1, §2

The subject of the next assay is A549 cell line. Nature of the assay: Cell growth inhibition of cancer cell lines (SRB assay), A549. The assay is classed as cell-based. As to the method:
as §1, §2

Turning to `COc1cc(CN2CCOCC2)cc2[nH]c(=O)c3c(c12)NCCC3` [Example 74, 10-Methoxy-8-(morpholinomethyl)-1,2,3,4-tetrahydrobenzo[h][1,6]naphthyridine-5(6H)-one dihydrochloride], the “SN-38 PF50” value came to 3.5 with HT-29 Cell line (2 μM compound); 2.2 in the assay with SK-OV-3 Cell line (2 μM compound); 2.2 in the assay on A549 cell line (2 μM compound, GI50 SN-38 alone / GI50 with compound). Moreover, the “Temozolomide PF50” value with HT-29 Cell line (2 μM compound) is above 2.8; in the assay with SK-OV-3 Cell line (2 μM compound), above 5.0; with A549 cell line (2 μM compound, GI50 temozolomide alone / GI50 with compound) it was 3.2. The GI50 in the assay with HT-29 Cell line (Homo sapiens, 72 hours) turned out to be 30 µM; in the assay on SK-OV-3 Cell line (Homo sapiens, 72 hours), 52 µM; in the assay on A549 cell line (Homo sapiens, 72 hours) it was 75 µM. Moreover, the Infarct volume in assay [1] (10 mg/kg intravenously at reperfusion) came out at 252.38 mm^3; in assay [1] (20 mg/kg intravenously at reperfusion), 124.68 mm^3; in assay [1] (30 mg/kg intravenously at reperfusion), 162.88 mm^3. The “Percent of infraction decrease” value in assay [1] (10 mg/kg intravenously) turned out to be 4%; in assay [1] (20 mg/kg intravenously), 53%; in assay [1] (30 mg/kg intravenously) it was 38%.

Values taken from patent publication US8815891B2, “Tricyclic derivative or pharmaceutically acceptable salts thereof, preparation method thereof, and pharmaceutical composition containing the same” (Je Il Pharmaceutical Co., Ltd., priority 2008, dated 2014).
